Reference: patent US9493420B2, “Quinoline derivatives and uses thereof” (Portland State University, priority 2005, dated 2016)

Key:
[1] = system: D6 (CQ^S) P. falciparum strain; test: In vitro fluorescence (Sybr Green I) growth inhibition assay, D6 strain; format: cell-based; conditions: Plasmodium falciparum, D6; Table 13; growth inhibition; read-out: IC50 (nM) D6 (CQ^S)
Description: (§1) One exemplary method for measuring inhibitory effects of RCQ compound in vitro has been reported by Smilkstein et al. (Antimicrob. Agents Chemother., 48(5):1803-1806, 2004). This method employs fluorescent detection of the level of parasitemia in cultured red blood cells and can be automated for high-throughput screening of antimalarial RCQs. This exemplary method allows the inhibitory agent (such as a RCQ) to be in contact with the parasite for an entire developmental cycle without purine starvation, which is in contrast to the traditional ^3H-hypoxanthine method (Desjardins et al., Antimicrob. Agents Chemother., 16(6):710-718, 1979). Briefly, to perform the Smilkstein et al. method, an initial parasitemia of approximately 0.2% is attained by adding uninfected red blood cells (RBCs) to a stock culture of Plasmodium sp.-infected RBCs. […] After a period of incubation (such as about 72 hours), a sufficient amount (e.g., 100 μL) of a fluorescent DNA binding dye-detergent mixture (e.g., Sybr Green I dye-detergent mixture) to lyse cells and bind to DNA is added to the reactions. Because uninfected RBCs have no DNA, only parasite DNA (in infected RBCs) is available for binding to the fluorescent dye (e.g., Sybr Green I). Samples are then incubated in the dark for a period of time (e.g., one hour), followed by measurement of levels of fluorescence. For Sybr Green I, excitation and emission wavelength are 485 and 530 nm, respectively. Fluorescence readings, which represent the amount of parasite DNA in the sample, can be plotted against the Log [drug] and fit to a curve by nonlinear regression to obtain the IC50 value for the tested compound.
(§2) An in vitro fluorescence assay for determining IC50 of antimalarial drugs was performed as previously described by Smilkstein et al. (Antimicrob. Agents Chemother., 48(5):1803-1806, 2004). This relatively low-cost procedure can be automated for high-throughput screening of the antimalarial activities of RCQs described herein. Advantageous, this method also allows the tested agent (e.g, a RCQ) to be in contact with the parasite for an entire developmental cycle without purine starvation (which occurs with the commonly used ^3H-hypoxanthine method; see, e.g., Desjardins et al., Antimicrob. Agents Chemother., 16, (6):[…], 1979).
(§3) Briefly, an initial parasitemia of approximately 0.2% was attained by addition of uninfected red blood cells to a stock culture of cells infected with Dd2 (CQ^R) or D6 (CQ^S) P. falciparum strains. A 10 mM RCQ_02 solution (in DMSO) was prepared. RCQ_02 (at a final concentration from 10^−11 to 10^−4 M) and infected red blood cells (at a final concentration of 2% (v/v)) were mixed in 100 μL samples in individual wells of a 96-well plate. Each sample was prepared in triplicate. A triplicate set of reactions containing CQ (instead of RCQ_02) was included as a control. After a 72 hour incubation period, Sybr Green I dye-detergent mixture (100 μL) was added to each reaction. The samples were further incubated for an hour in the dark, and then placed in a 96-well fluorescence plate reader (Gemini-EM, […]) and analyzed with excitation and emission wavelength bands at 485 and 530 nm, respectively. Fluorescence readings were plotted against the Log [drug], and curve fitting performed by nonlinear regression to find the IC50 value.

[2] = system: Dd2 (CQ^R) P. falciparum strain; test: In vitro fluorescence (Sybr Green I) growth inhibition assay, Dd2 strain; format: cell-based; conditions: Plasmodium falciparum, DD2; Table 13; growth inhibition; read-out: IC50 (nM) Dd2 (CQ^R)
Description: as §1, §2, §3

[3] = target: T1, recombinant human serotonin (hSERT) transporter (Homo sapiens, UniProt P31645); test: Inhibition of [3H]neurotransmitter uptake, hSERT; format: cell-based
T1 construct: expressed in transfected cells; host or cells: HEK cells expressing hSERT
T1 sequence (P31645 whole entry): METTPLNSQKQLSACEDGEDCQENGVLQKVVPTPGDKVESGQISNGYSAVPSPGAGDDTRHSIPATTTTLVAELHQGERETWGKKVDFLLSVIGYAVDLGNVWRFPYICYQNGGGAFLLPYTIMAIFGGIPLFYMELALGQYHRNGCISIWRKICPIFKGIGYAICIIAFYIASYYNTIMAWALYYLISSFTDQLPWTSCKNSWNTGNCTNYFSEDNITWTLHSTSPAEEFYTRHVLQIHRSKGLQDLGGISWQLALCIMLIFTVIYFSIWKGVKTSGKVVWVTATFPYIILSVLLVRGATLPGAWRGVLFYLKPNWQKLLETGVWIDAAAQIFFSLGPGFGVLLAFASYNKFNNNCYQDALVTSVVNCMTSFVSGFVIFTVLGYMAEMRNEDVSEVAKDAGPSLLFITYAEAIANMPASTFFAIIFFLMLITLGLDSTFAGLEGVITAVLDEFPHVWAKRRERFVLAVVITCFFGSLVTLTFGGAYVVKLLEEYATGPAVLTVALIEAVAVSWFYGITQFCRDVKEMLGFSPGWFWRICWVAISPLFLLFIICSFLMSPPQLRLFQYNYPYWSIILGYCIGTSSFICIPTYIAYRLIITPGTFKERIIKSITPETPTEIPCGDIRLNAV
Procedure: (§4) Selected RCQs were tested for inhibition of [^3H]neurotransmitter uptake by the recombinant human serotonin (hSERT), dopamine (HEK-hDAT), and norepinephrine (hNET) transporters by a modification of the method of Eshleman et al. (J. Pharmacol. Exp. Ther., 289(2):877-885, 1999). HEK-hDAT, hSERT, and -hNET expressing cells were grown on tissue culture dishes. After removing the medium and washing the plates with Ca^2+-, Mg^2+-free phosphate buffered saline (PBS), fresh medium was added and the plates were placed in a 25° C. water bath for 5 minutes. Cells were gently lifted from the plates and cell clusters separated by trituration. 50 μL aliquots of the suspended cells were added to assay tubes containing drugs and Krebs-HEPES assay buffer in a final volume of 0.5 mL.
(§5) Competition experiments were conducted in triplicate. After a 10 minute preincubation period at 25° C., [^3H]neurotransmitter (20 nM final concentration; [^3H]DA, [^3H]5-HT, or [^3H]NE) were added, and the mixtures incubated for 10 minutes. Reactions were terminated by filtration through Wallac filtermat A filters (presoaked in 0.05% polyethylenimine), using a Tomtec cell harvester. Scintillation fluid was added to each filtered spot, and radioactivity remaining on the filters determined using a Wallac 1205 Betaplate scintillation counter.
(§6) Specific uptake was defined as the difference in uptake observed in the absence and presence of 5 μM mazindol (hDAT and hNET) or 5 μM imipramine (hSERT). Inhibition of uptake was determined by non-linear regression using Prism software.

[4] = target: T2, recombinant human norepinephrine (hNET) transporter (Homo sapiens, UniProt P23975); test: Inhibition of [3H]neurotransmitter uptake, hNET; format: cell-based
T2 construct: expressed in transfected cells; host or cells: HEK cells expressing hNET
T2 sequence (P23975 whole entry): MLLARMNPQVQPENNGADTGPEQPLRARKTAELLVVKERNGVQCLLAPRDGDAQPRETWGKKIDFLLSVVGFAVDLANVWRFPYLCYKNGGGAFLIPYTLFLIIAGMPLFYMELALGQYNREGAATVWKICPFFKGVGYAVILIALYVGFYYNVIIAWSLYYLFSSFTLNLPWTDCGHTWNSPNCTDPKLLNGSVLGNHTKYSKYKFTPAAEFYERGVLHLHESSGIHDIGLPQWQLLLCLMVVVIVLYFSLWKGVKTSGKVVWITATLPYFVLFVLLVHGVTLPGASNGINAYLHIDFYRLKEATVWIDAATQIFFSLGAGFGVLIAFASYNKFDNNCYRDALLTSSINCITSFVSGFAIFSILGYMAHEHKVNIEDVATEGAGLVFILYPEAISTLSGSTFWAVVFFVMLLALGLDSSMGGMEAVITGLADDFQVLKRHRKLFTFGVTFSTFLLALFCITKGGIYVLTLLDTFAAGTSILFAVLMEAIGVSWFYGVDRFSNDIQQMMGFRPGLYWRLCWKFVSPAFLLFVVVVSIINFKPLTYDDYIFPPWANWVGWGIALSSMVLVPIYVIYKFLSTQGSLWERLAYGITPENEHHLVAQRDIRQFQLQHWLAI
Procedure: as §4, §5, §6

[5] = Adverse side effects in treated mice of the 4-day suppressive test; format: in vivo; conditions: 64, 32, 16 mg/kg oral gavage once per day for four days; CF-1 mice
Description: A variation of the 4-day suppressive test described by Peters (Ann. Trop. Med. Parasitol., 69(2):155-171, 1975) was used to test the in vivo effectiveness of RCQ_02 as a treatment for Plasmodium sp. infection. Briefly, P. chabaudi parasites (Mackinnon and Read, Philos. Trans. R. Soc. Lond. B Biol. Sci., 359:965-986, 2004) were collected from a donor animal harboring approximately 20% parasitemia. Sixteen (16) male CF-1 mice at 4-5 weeks of age (approximately 20 g) were infected with approximately 10^7 infected red blood cells via 100 μL tail vein injection. The infected mice were randomly sorted into groups of 4 mice each on day 0. One hour after infection, each group of four mice received 64, 32, 16, or 0 mg/kg RCQ_02 via oral gavage once per day for four days. After the treatment course, the animals were weighed and blood collected for the determination of parasite burden via direct microscopic analysis of Giemsa-stained blood smears. Mice treated with 64 mg/kg RCQ_02 were all cleared of parasites to >99% by day 4.

[6] = Water solubility; format: physicochemical

- IC50 [3]: 230 nM
- IC50 [4]: 350 nM
- water solubility [6]: relatively low water solubility
Structure (SMILES): CN(CCCNc1ccnc2cc(Cl)ccc12)CCCN1c2ccccc2CCc2ccccc21 [RCQ_02, N′-(7-Chloro-quinolin-4-yl)-N-[3-(10,11-dihydro-dibenzo[b,f]azepin-5-yl)-propyl]-N-methyl-propane-1,3-diamine]
- IC50 [1]: 2.9 nM
- IC50 [2]: 5.3 nM
- adverse side effects (weight loss, reduced eating, reduced activity, ruffled ungroomed fur) [5]: none of the treated mice showed any adverse side effects
